Reference: patent publication US20230413816A1, “COMPOSITIONS COMPRISING ALLYL SULFIDE AND A SURFACTANT AND METHODS OF USING SAME” (The State of Israel, Ministry of Agriculture & Rural …, priority 2020, published 2023)

Key:
Grapevines = experiment: Bud break scored on the BBCH scale, commercial vineyard in South Africa (Example 3); assay type: in vivo, grapevine; conditions: for bud-breaking efficiency compared with commercially available agents (HC): sulfide compound with 2% w/w T7; for bud break score (BBCH scale): 36 days after treatment, untreated score 19
Excerpt: FIGS. 5A-5B are bar graphs presenting a comparison between the bud break efficiency of the exemplary compositions of the invention and controls in vine. The X-axis represents different treatments, and the Y-axis represents vine growth stage according to the BBCH scale, as scored 36 days after treatment. FIG. 5A represents a comparison between the synergistic bud break efficiency of T7 in combination with different sulfide compounds (DADS and dimethyl sulfide, DMS). 1—untreated vines (negative control); 2—2.5% w/w DMS and 2% w/w T7; 3—5% w/w DMS and 2% w/w T7; 4—HC (positive control); 5—5% w/w DADS and 2% w/w T7. FIG. 5B represents a comparison between the synergistic bud break efficiency of 6% w/w DADS in combination with various concentrations of T7 (entries 4-7) versus controls (entries 1-2, and 8). 1—untreated vines (negative control); 2—12% w/w T7 no DADS; 3—6% w/w DADS no T7; 4—6% w/w DADS and 12% w/w T7; 5—6% w/w DADS and 1% w/w T7; 6—6% w/w DADS and 2% w/w T7; 7—6% w/w DADS and 0.5% w/w T7; 8—HC (positive control).
Grapevines in a commercial vineyard in South Africa were sprayed exemplary agricultural compositions of the invention. Two different experimental treatments have been performed on 5 blocks of 14 vines. The bud break efficiency of each treatment has been evaluated by scoring 60 buds per vine according to BBCH scale at different time points after treatment. BBCH values represent average values of five blocks per treatment. The tested exemplary agricultural compositions utilized for each experimental treatment were as follows: • 2% w/w of T7 (see Table 1) together with various concentrations (2.5, 5 and 6% w/w) of the sulfide compound ([…] (DMS); and DADS). The effect of these treatments was compared to a commercial formulation comprising 50% HC; as well as to a negative control, i.e. untreated vines. The results of this experiment are represented in FIG. 5A. • 6% w/w DADS together with various concentrations (0.5, 1, 2 and 12% w/w) of T7. The effect of these treatments was compared to a commercial formulation comprising 50% HC; as well as to negative controls including untreated plant, and plants treated with 12% w/w T7 and 6% w/w DADS, respectively. The results of this experiment are represented in FIG. 5B.

whole vine = conditions: applied to the whole vine rather than to cuttings; cited from earlier work
[1] = system: spur-pruned cv. Early Sweet vines; experiment: Bud breaking on whole vines in a vineyard (Example 1, Jordan Valley); assay type: in vivo, grapevine
Procedure: FIG. 1 is a graph presenting a comparison between the bud break efficiency of the exemplary compositions of the invention and controls, when applied to spur-pruned cv. Early Sweet vines at the beginning of January in a vineyard located at Argaman, the Jordan Valley, Israel. Bud counts were conducted once a week and started about […] after treatment. The tested combinations were as follows: (a) DADS at 6% w/w, together with (b) 2% w/w of a non-ionic surfactant (abbreviated as T3-D2, T4-D2, T5-D2, T6-D2 or T7-D2, respectively) or of a cationic surfactant (Armobreak®, abbreviated as T1-D2). The controls were as follows: (a) plants treated with Triton X-100 (abbreviated as Con), and (b) single treatments with DADS, HC, and the surfactants (abbreviated as T1, T3, T4, T5, T6 or T7, respectively). The chemical structures of the surfactants are as represented in Table 1, below. The Y-axis represents the percentage of the bursting buds out of the total number of the buds on a vine.
The Y-axis represent the percentage of bursting basal buds out of total number of spurs on a vine.
Mature spur-pruned cv. […]
Each formulation was sprayed onto five blocks of two vines, wherein the values presented in FIG. 1 are an average of the ten tested grapevines. […] Total number of buds was recorded once for each vine, and number of bursting buds were recoded for each vine at 22, 27, 34 and 41 d after treatment.

Kiwi plants = experiment: Bud break trial on kiwi (Example 4); assay type: in vivo; conditions: 49 days after treatment
Excerpt: The inventors performed numerous experiments to assess the effect of application of an exemplary composition of the invention (e.g. about 6% w/w DADS and about 4% w/w T7) on bud break in various plants. For each test from about 500 to about 1500 l/ha of the composition have been applied (e.g. by spraying) to the orchard, to result in almost complete wetting of the treated plants. The tested plant species included kiwi, cherry, apple, and plum.

Structure (SMILES)	bud-breaking efficiency compared with commercially available agents (HC) (Grapevines)	bud break enhancing effect compared with HC (whole vine)	bud break score (BBCH scale) (Grapevines; 2.5% w/w DMS and 2% w/w T7)	bud break score (BBCH scale) (Grapevines; 5% w/w DMS and 2% w/w T7)	bud break efficiency, ranking among the treatments of FIG. 1 ([1]; 6% w/w DADS + 2% w/w surfactant, or HC, percentage of bursting buds)	bud break uniformity along a spur ([1]; FIG. 3, basal buds)	bud break (Kiwi plants) [%]	bud break of HC relative to the composition of the invention (times less) (Kiwi plants) [times]	green foliage coverage score (of 10) (Kiwi plants)
C=CCSSCC=C [DADS, diallyl disulfide]	comparable with the efficiency of commercially available agents	very limited and inferior to HC							
CSC [DMS, dimethyl sulfide]	comparable with the efficiency of commercially available agents		24	30-31					
N#CN [HC, hydrogen cyanamide]					superior	significantly less uniform bud break	24	~2	2
